Patent US20260242419A1, “A CYCLIC PEPTIDE FOR TRAPPING INTERLEUKIN-1 BETA” (Merck Sharp & Dohme LLC, priority 2023, published 2026)
pIC50: −log10 of the molar value. Starred links: 1 amine or outer side, 2 acyl side, 3 side chain; linkers in the order of their positions; H or OH if unused. Non-standard residues stand in square brackets, D forms with d. Residues, ends and D or L forms follow the SMILES beside them. *: point of attachment. dPro(4R-(4-pyridylmethyl)) = O=C(O)[C@H]1C[C@@H](Cc2ccncc2)CN1; Benzoyl(4-piperazinyl) = O=C(c1ccc(N2CCN([*:1])CC2)cc1)[*:2]; Trp(βS-Me,4-F) = C[C@@H](c1c[nH]c2cccc(F)c12)[C@H](N)C(=O)O; Bip(4'-COOH) = N[C@@H](Cc1ccc(-c2ccc(C(=O)O)cc2)cc1)C(=O)O; dPro(4R-Bzl(4-F)) = O=C(O)[C@H]1C[C@@H](Cc2ccc(F)cc2)CN1; dPro(3S-(4-F-Bn)) = O=C(O)[C@@H]1NCC[C@@H]1Cc1ccc(F)cc1; Ala(pyrimidin-5-yl) = N[C@@H](Cc1cncnc1)C(=O)O; Phe(4-COOH) = N[C@@H](Cc1ccc(C(=O)O)cc1)C(=O)O; Phe(4-tBu) = CC(C)(C)c1ccc(C[C@H](N)C(=O)O)cc1; X34 = C[N+](C)(C)CC[C@H](N[*:1])C(=O)[*:2]; Phe(3-Cl) = N[C@@H](Cc1cccc(Cl)c1)C(=O)O; Pro(cis-4-F) = O=C(O)[C@@H]1C[C@H](F)CN1; X45 = Cc1cc(C[C@H](N[*:1])C(=O)[*:2])no1; Ala(4-THP) = N[C@@H](CC1CCOCC1)C(=O)O; X38 = O=C([C@H](Cc1ncco1)N[*:1])[*:2]; X6 = O=C([C@H](Cc1ccncn1)N[*:1])[*:2]; AEF = NCCOc1ccc(C[C@H](N)C(=O)O)cc1; d(αMeD) = C[C@@](N)(CC(=O)O)C(=O)O; 4Pal = N[C@@H](Cc1ccncc1)C(=O)O; Isonicotinoyl = O=C(c1ccncc1)*; Dab = NCC[C@H](N)C(=O)O; Aib = CC(C)(N)C(=O)O; X50 = O=C(c1ccncn1)*; Bz = O=C(c1ccccc1)*; X2 = O=C(c1ncccn1)*

Target: T1, IL-1β (Homo sapiens, UniProt P01584)
T1 construct: purchased BioLegend 579404
T1 sequence (P01584 117-269): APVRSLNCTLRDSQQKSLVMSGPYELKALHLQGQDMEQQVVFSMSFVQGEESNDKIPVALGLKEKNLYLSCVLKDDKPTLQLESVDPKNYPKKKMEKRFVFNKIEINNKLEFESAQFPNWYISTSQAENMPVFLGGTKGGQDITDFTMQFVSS
Test: IL-6 assay in MRC5 cells: inhibition of IL-1β induced IL-6 secretion (AlphaLISA)
Format: cell-based
Details: inhibition of IL-1β induced IL-6 secretion in MRC5 cells; read-out: MRC5 IC50
Outline: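 Compound was pre-incubated 1 h at ambient temperature with recombinant human IL-1β at 2λ EC80 before adding human lung fibroblast MRC5 cells (3000/well) in EMEM with 0.025% BSA. After overnight culture at 37 °C, 5% CO2, secreted IL-6 in conditioned medium was measured by AlphaLISA; IC50 from 4-parameter logistic fits.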

Compound | pIC50
C[C@@H](c1c[nH]c2cccc(F)c12)[C@@H]1NC(=O)[C@@H]2C[C@H](F)CN2C(=O)CNC(=O)[C@H](Cc2ccc(C(=O)O)cc2)NC(=O)[C@H](Cc2ccncc2)NC(=O)[C@H](Cc2ccc(OCCNC(=O)c3ccncc3)cc2)NC(=O)[C@H]2C[C@@H](Cc3ccncc3)CN2C(=O)CNC(=O)[C@H](CCN)NC(=O)[C@H](CCC(N)=O)NC(=O)[C@H](Cc2cncnc2)NC(=O)C(C)(C)NC(=O)[C@H](Cc2c[nH]c3ccccc23)NC(=O)[C@H](CO)NC(=O)C(C)(C)NC1=O [Example 307] (cyclo([AEF](Isonicotinoyl)[4Pal][Phe(4-COOH)]G[Pro(cis-4-F)][Trp(βS-Me,4-F)][Aib]SW[Aib][Ala(pyrimidin-5-yl)]Q[Dab]G[dPro(4R-(4-pyridylmethyl))])) | 10.74
C[C@@H](c1c[nH]c2cccc(F)c12)[C@@H]1NC(=O)[C@@H]2C[C@H](F)CN2C(=O)CNC(=O)[C@H](Cc2ccc(C(=O)O)cc2)NC(=O)[C@H](Cc2ccncc2)NC(=O)[C@H](Cc2ccc(OCCNC(=O)c3ccccc3)cc2)NC(=O)[C@H]2C[C@@H](Cc3ccncc3)CN2C(=O)CNC(=O)[C@H](CCN)NC(=O)[C@H](CCC(N)=O)NC(=O)[C@H](Cc2cncnc2)NC(=O)C(C)(C)NC(=O)[C@H](Cc2c[nH]c3ccccc23)NC(=O)[C@H](CO)NC(=O)C(C)(C)NC1=O [Example 308] (cyclo([AEF](Bz)[4Pal][Phe(4-COOH)]G[Pro(cis-4-F)][Trp(βS-Me,4-F)][Aib]SW[Aib][Ala(pyrimidin-5-yl)]Q[Dab]G[dPro(4R-(4-pyridylmethyl))])) | 10.89
C[C@@H](c1c[nH]c2cccc(F)c12)[C@@H]1NC(=O)[C@@H]2C[C@H](F)CN2C(=O)CNC(=O)[C@H](Cc2ccc(C(=O)O)cc2)NC(=O)[C@H](Cc2ccncc2)NC(=O)[C@H](Cc2ccc(-c3ccc(C(=O)O)cc3)cc2)NC(=O)[C@H]2[C@@H](Cc3ccc(F)cc3)CCN2C(=O)CNC(=O)[C@H](CCN)NC(=O)[C@H](CCC(N)=O)NC(=O)[C@H](Cc2ccncn2)NC(=O)C(C)(C)NC(=O)[C@H](Cc2c[nH]c3ccccc23)NC(=O)[C@H](CCC(=O)O)NC(=O)C(C)(C)NC1=O [Example 312] (cyclo([Bip(4'-COOH)][4Pal][Phe(4-COOH)]G[Pro(cis-4-F)][Trp(βS-Me,4-F)][Aib]EW[Aib][X6]Q[Dab]G[dPro(3S-(4-F-Bn))])) | 10.77
C[C@@H](c1c[nH]c2cccc(F)c12)[C@@H]1NC(=O)[C@@H]2C[C@H](F)CN2C(=O)CNC(=O)[C@H](Cc2ccc(C(=O)O)cc2)NC(=O)[C@H](Cc2ccncc2)NC(=O)[C@H](Cc2ccc(-c3ccc(C(=O)O)cc3)cc2)NC(=O)[C@H]2C[C@@H](Cc3ccc(F)cc3)CN2C(=O)CNC(=O)[C@H](CCN)NC(=O)[C@H](CCC(N)=O)NC(=O)[C@H](CC2CCOCC2)NC(=O)[C@@](C)(CC(=O)O)NC(=O)[C@H](Cc2c[nH]c3ccccc23)NC(=O)[C@H](CO)NC(=O)C(C)(C)NC1=O [Example 313] (cyclo([Bip(4'-COOH)][4Pal][Phe(4-COOH)]G[Pro(cis-4-F)][Trp(βS-Me,4-F)][Aib]SW[d(αMeD)][Ala(4-THP)]Q[Dab]G[dPro(4R-Bzl(4-F))])) | 10.82
C[C@@H](c1c[nH]c2cccc(F)c12)[C@@H]1NC(=O)[C@@H]2C[C@H](F)CN2C(=O)CNC(=O)[C@H](Cc2ccc(C(=O)O)cc2)NC(=O)[C@H](Cc2ccncc2)NC(=O)[C@H](Cc2ccc(-c3ccc(C(=O)O)cc3)cc2)NC(=O)[C@H]2C[C@@H](Cc3ccc(F)cc3)CN2C(=O)CNC(=O)[C@H](CCN)NC(=O)[C@H](CCC(N)=O)NC(=O)[C@H](CC[N+](C)(C)C)NC(=O)C(C)(C)NC(=O)[C@H](Cc2c[nH]c3ccccc23)NC(=O)[C@H](CO)NC(=O)C(C)(C)NC1=O [Example 314] (cyclo([Bip(4'-COOH)][4Pal][Phe(4-COOH)]G[Pro(cis-4-F)][Trp(βS-Me,4-F)][Aib]SW[Aib][X34]Q[Dab]G[dPro(4R-Bzl(4-F))])) | 10.70
CC(=O)NCCOc1ccc(C[C@@H]2NC(=O)[C@H]3C[C@@H](Cc4ccncc4)CN3C(=O)CNC(=O)[C@H](CCN)NC(=O)[C@H](CCC(N)=O)NC(=O)[C@H](Cc3cc(C)on3)NC(=O)C(C)(C)NC(=O)[C@H](Cc3c[nH]c4ccccc34)NC(=O)[C@H](CCC(=O)O)NC(=O)C(C)(C)NC(=O)[C@H]([C@@H](C)c3c[nH]c4cccc(F)c34)NC(=O)[C@@H]3C[C@H](F)CN3C(=O)CNC(=O)[C@H](Cc3ccc(C(=O)O)cc3)NC(=O)[C@H](Cc3ccncc3)NC2=O)cc1 [Example 315] (cyclo([AEF](Ac)[4Pal][Phe(4-COOH)]G[Pro(cis-4-F)][Trp(βS-Me,4-F)][Aib]EW[Aib][X45]Q[Dab]G[dPro(4R-(4-pyridylmethyl))])) | 10.74

Continued by rising pIC50, values first:

pIC50 | Compound
10.70 | C[C@@H](c1c[nH]c2cccc(F)c12)[C@@H]1NC(=O)[C@@H]2C[C@H](F)CN2C(=O)CNC(=O)[C@H](Cc2ccc(C(=O)O)cc2)NC(=O)[C@H](Cc2ccncc2)NC(=O)[C@H](Cc2ccc(OCCNC(=O)c3ccc(N4CCNCC4)cc3)cc2)NC(=O)[C@H]2C[C@@H](Cc3ccncc3)CN2C(=O)CNC(=O)[C@H](CCN)NC(=O)[C@H](CCC(N)=O)NC(=O)[C@H](Cc2cncnc2)NC(=O)C(C)(C)NC(=O)[C@H](Cc2c[nH]c3ccccc23)NC(=O)[C@H](CO)NC(=O)C(C)(C)NC1=O [Example 306] (cyclo([AEF](Benzoyl(4-piperazinyl))[4Pal][Phe(4-COOH)]G[Pro(cis-4-F)][Trp(βS-Me,4-F)][Aib]SW[Aib][Ala(pyrimidin-5-yl)]Q[Dab]G[dPro(4R-(4-pyridylmethyl))]))
10.70 | CC(=O)NCCOc1ccc(C[C@@H]2NC(=O)[C@H]3C[C@@H](Cc4ccncc4)CN3C(=O)CNC(=O)[C@H](CCN)NC(=O)[C@H](CCC(N)=O)NC(=O)[C@H](Cc3ncco3)NC(=O)C(C)(C)NC(=O)[C@H](Cc3c[nH]c4ccccc34)NC(=O)[C@H](CCC(=O)O)NC(=O)C(C)(C)NC(=O)[C@H]([C@@H](C)c3c[nH]c4cccc(F)c34)NC(=O)[C@@H]3C[C@H](F)CN3C(=O)CNC(=O)[C@H](Cc3ccc(C(=O)O)cc3)NC(=O)[C@H](Cc3ccncc3)NC2=O)cc1 [Example 316] (cyclo([AEF](Ac)[4Pal][Phe(4-COOH)]G[Pro(cis-4-F)][Trp(βS-Me,4-F)][Aib]EW[Aib][X38]Q[Dab]G[dPro(4R-(4-pyridylmethyl))]))
10.74 | CC(=O)NCCOc1ccc(C[C@@H]2NC(=O)[C@H]3C[C@@H](Cc4ccncc4)CN3C(=O)CNC(=O)[C@H](CCN)NC(=O)[C@H](CCC(N)=O)NC(=O)[C@H](Cc3cccc(Cl)c3)NC(=O)C(C)(C)NC(=O)[C@H](Cc3c[nH]c4ccccc34)NC(=O)[C@H](CCC(=O)O)NC(=O)C(C)(C)NC(=O)[C@H]([C@@H](C)c3c[nH]c4cccc(F)c34)NC(=O)[C@@H]3C[C@H](F)CN3C(=O)CNC(=O)[C@H](Cc3ccc(C(=O)O)cc3)NC(=O)[C@H](Cc3ccncc3)NC2=O)cc1 [Example 309] (cyclo([AEF](Ac)[4Pal][Phe(4-COOH)]G[Pro(cis-4-F)][Trp(βS-Me,4-F)][Aib]EW[Aib][Phe(3-Cl)]Q[Dab]G[dPro(4R-(4-pyridylmethyl))]))
10.77 | CC(=O)NCCOc1ccc(C[C@@H]2NC(=O)[C@H]3C[C@@H](Cc4ccncc4)CN3C(=O)CNC(=O)[C@H](CCN)NC(=O)[C@H](CCC(N)=O)NC(=O)[C@H](Cc3ccc(O)cc3)NC(=O)C(C)(C)NC(=O)[C@H](Cc3c[nH]c4ccccc34)NC(=O)[C@H](CCC(=O)O)NC(=O)C(C)(C)NC(=O)[C@H]([C@@H](C)c3c[nH]c4cccc(F)c34)NC(=O)[C@@H]3C[C@H](F)CN3C(=O)CNC(=O)[C@H](Cc3ccc(C(=O)O)cc3)NC(=O)[C@H](Cc3ccncc3)NC2=O)cc1 [Example 310] (cyclo([AEF](Ac)[4Pal][Phe(4-COOH)]G[Pro(cis-4-F)][Trp(βS-Me,4-F)][Aib]EW[Aib]YQ[Dab]G[dPro(4R-(4-pyridylmethyl))]))
10.77 | C[C@@H](c1c[nH]c2cccc(F)c12)[C@@H]1NC(=O)[C@@H]2C[C@H](F)CN2C(=O)CNC(=O)[C@H](Cc2ccc(C(=O)O)cc2)NC(=O)[C@H](Cc2ccncc2)NC(=O)[C@H](Cc2ccc(C(C)(C)C)cc2)NC(=O)[C@H]2C[C@@H](Cc3ccncc3)CN2C(=O)CNC(=O)[C@H](CCN)NC(=O)[C@H](CCC(N)=O)NC(=O)[C@H](Cc2cncnc2)NC(=O)C(C)(C)NC(=O)[C@H](Cc2c[nH]c3ccccc23)NC(=O)[C@H](CCC(=O)O)NC(=O)C(C)(C)NC1=O [Example 311] (cyclo([Phe(4-tBu)][4Pal][Phe(4-COOH)]G[Pro(cis-4-F)][Trp(βS-Me,4-F)][Aib]EW[Aib][Ala(pyrimidin-5-yl)]Q[Dab]G[dPro(4R-(4-pyridylmethyl))]))
10.80 | C[C@@H](c1c[nH]c2cccc(F)c12)[C@@H]1NC(=O)[C@@H]2C[C@H](F)CN2C(=O)CNC(=O)[C@H](Cc2ccc(C(=O)O)cc2)NC(=O)[C@H](Cc2ccncc2)NC(=O)[C@H](Cc2ccc(OCCNC(=O)c3ccncn3)cc2)NC(=O)[C@H]2C[C@@H](Cc3ccncc3)CN2C(=O)CNC(=O)[C@H](CCN)NC(=O)[C@H](CCC(N)=O)NC(=O)[C@H](Cc2cncnc2)NC(=O)C(C)(C)NC(=O)[C@H](Cc2c[nH]c3ccccc23)NC(=O)[C@H](CO)NC(=O)C(C)(C)NC1=O [Example 305] (cyclo([AEF](X50)[4Pal][Phe(4-COOH)]G[Pro(cis-4-F)][Trp(βS-Me,4-F)][Aib]SW[Aib][Ala(pyrimidin-5-yl)]Q[Dab]G[dPro(4R-(4-pyridylmethyl))]))
10.85 | C[C@@H](c1c[nH]c2cccc(F)c12)[C@@H]1NC(=O)[C@@H]2C[C@H](F)CN2C(=O)CNC(=O)[C@H](Cc2ccc(C(=O)O)cc2)NC(=O)[C@H](Cc2ccncc2)NC(=O)[C@H](Cc2ccc(OCCNC(=O)c3ncccn3)cc2)NC(=O)[C@H]2C[C@@H](Cc3ccncc3)CN2C(=O)CNC(=O)[C@H](CCN)NC(=O)[C@H](CCC(N)=O)NC(=O)[C@H](Cc2cncnc2)NC(=O)C(C)(C)NC(=O)[C@H](Cc2c[nH]c3ccccc23)NC(=O)[C@H](CO)NC(=O)C(C)(C)NC1=O [Example 304] (cyclo([AEF](X2)[4Pal][Phe(4-COOH)]G[Pro(cis-4-F)][Trp(βS-Me,4-F)][Aib]SW[Aib][Ala(pyrimidin-5-yl)]Q[Dab]G[dPro(4R-(4-pyridylmethyl))]))
